According to patent publication US6492520B1, “Substituted pyrido-or pyrimido-containing 6,6- or 6,7-bicyclic derivatives” (Pfizer Inc, priority 1996, dated 2002):

melting point: 138 to 140 °C
SMILES: CCC(CC)N1CCNc2c1cc(C)nc2Oc1c(C)cc(C)cc1C [Example 4, 1-(1-Ethyl-propyl)-7-methyl-5-(2,4,6-trimethyl-phenoxy)-1,2,3,4-tetrahydro-pyrido[3,4-b]pyrazine]
